This note sets out measurements from patent US20100311782A1, “SUBSTITUTED PIPERIDINYLPROPANOIC ACID COMPOUNDS AND METHODS OF THEIR USE” (priority 2009, published 2010).

The target of assay [1] is T1, cloned human δ opioid receptor (Homo sapiens, UniProt P41143).
T1 construct: expressed in transfected cells
Put plainly: Receptor binding, [3H]diprenorphine displacement, delta opioid receptor. The conditions noted are these: read-out: DOR Ki.

In assay [2] the target is T2, cloned human μ opioid receptor (Homo sapiens, UniProt P35372).
T2 construct: expressed in transfected cells
Put plainly: Inhibition of agonist (loperamide)-stimulated [35S]GTPγS binding. In kind it is biochemical. The conditions noted are these: in vitro studies. How it is done: The potencies of the antagonists were assessed by their abilities to inhibit agonist-stimulated [^35S]GTPγS binding to membranes containing the cloned human μ, κ, or δ opioid receptors. The agonist used for the μ opioid receptor was loperamide.
To determine the IC50 value, which was the concentration to give half-maximal inhibition of agonist-stimulated [^35S]GTPγS binding, the amount of [^35S]GTPγS bound in the presence of a fixed concentration of agonist and various concentrations of antagonist was measured. The fixed concentration of agonist was the EC80 for the agonist, which was the concentration to give 80% of the relative maximum stimulation of [^35S]GTPγS binding. The IC50 value was determined from a best nonlinear regression fit of the data to the following equation,
where Y is the amount of [^35S]GTPγS bound at each concentration of antagonist, Bottom is the calculated amount of [^35S]GTPγS bound in the presence of an infinite concentration of antagonist, Top is the calculated amount of [^35S]GTPγS bound in the absence of added antagonist, X is the logarithm of the concentration of antagonist, and LogIC50 is the logarithm of the concentration of antagonist where the amount of [^35S]GTPγS bound is halfway between Bottom and Top. The nonlinear regression fit was performed using GraphPad Prism® version 3.00 for Windows (GraphPad Software, San Diego, Calif.).
(GTPγS is a poorly hydrolysed GTP analogue; its binding reports G protein activation.)

For assay [3], the target named is T2, cloned human μ opioid receptor. Nature of the assay: Receptor binding, [3H]diprenorphine displacement, mu opioid receptor. The conditions noted are these: [3H]diprenorphine, cloned human mu opioid receptor; read-out: MOR Ki.
In assay [4] the target is T3, cloned human κ opioid receptor (Homo sapiens, UniProt P41145).
T3 construct: expressed in transfected cells
Put plainly: Receptor binding, [3H]diprenorphine displacement, kappa opioid receptor. The conditions noted are these: [3H]diprenorphine, cloned human kappa opioid receptor; read-out: KOR Ki.

As usually defined, the Ki is a measure of affinity in units of concentration, obtained from inhibition or displacement.

SMILES strings stand for the structures.

T2 sequence (P35372 whole entry): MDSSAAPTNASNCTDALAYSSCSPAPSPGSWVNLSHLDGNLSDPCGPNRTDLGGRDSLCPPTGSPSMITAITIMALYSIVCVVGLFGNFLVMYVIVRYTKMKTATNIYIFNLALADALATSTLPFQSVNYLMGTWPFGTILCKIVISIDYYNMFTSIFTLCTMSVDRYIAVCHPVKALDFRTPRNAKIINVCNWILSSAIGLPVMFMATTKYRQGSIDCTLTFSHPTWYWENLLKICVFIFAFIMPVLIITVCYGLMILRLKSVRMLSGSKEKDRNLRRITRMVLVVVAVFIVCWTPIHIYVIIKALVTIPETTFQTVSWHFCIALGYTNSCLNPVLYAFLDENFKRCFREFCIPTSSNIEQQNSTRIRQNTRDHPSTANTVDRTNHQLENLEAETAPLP
T3 sequence (P41145 whole entry): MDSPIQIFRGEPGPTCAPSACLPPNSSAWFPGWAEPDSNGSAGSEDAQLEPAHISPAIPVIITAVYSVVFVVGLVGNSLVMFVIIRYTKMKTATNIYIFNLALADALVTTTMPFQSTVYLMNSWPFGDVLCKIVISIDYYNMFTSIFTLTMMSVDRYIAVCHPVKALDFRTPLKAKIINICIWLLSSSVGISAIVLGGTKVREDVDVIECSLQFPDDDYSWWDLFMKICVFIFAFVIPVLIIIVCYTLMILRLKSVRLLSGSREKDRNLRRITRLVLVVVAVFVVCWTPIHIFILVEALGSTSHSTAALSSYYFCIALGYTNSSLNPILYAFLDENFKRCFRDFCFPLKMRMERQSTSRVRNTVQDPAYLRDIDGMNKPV
T1 sequence (P41143 whole entry): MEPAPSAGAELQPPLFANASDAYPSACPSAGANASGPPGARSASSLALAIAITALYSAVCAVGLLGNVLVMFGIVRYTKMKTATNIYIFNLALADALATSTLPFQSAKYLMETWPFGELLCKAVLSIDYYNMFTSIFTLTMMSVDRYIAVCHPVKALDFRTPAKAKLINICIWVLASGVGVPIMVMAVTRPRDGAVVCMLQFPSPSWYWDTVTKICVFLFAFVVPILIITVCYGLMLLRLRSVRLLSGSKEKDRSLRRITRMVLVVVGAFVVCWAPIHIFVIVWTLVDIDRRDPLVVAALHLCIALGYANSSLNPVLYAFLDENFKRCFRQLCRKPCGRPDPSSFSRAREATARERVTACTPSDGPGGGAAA

Take `C[C@H]1CN(C[C@H](Cc2ccccc2)C(=O)O)CC[C@@]1(C)c1cccc(C(=O)O)c1` [Example C-1, 3-[1-(2S-Carboxy-3-phenyl-propyl)-3R,4R-dimethyl-piperidin-4-yl]-benzoic acid, reference compound]: the Ki in assay [1] was above 10 µM; in assay [3], 2.29 µM; in assay [4], above 10 µM. Moreover, the “inhibition of agonist-stimulated [35S]GTPγS binding relative to the other test compounds” value in assay [2] is “significantly reduced inhibition”.
